Experimental data as given in US20120190580A1, “TREATMENT OF PATIENTS AFTER STENT IMPLANTATION OR BALLOON DILATATION AND DRUG ELUTING STENTS” (MAX-PLANCK-GESELLSCHAFT ZUR FORDERUNG DER WISSENSCHAFTEN …, priority 2009, published 2012).
“Also recorded” adds a separate entry of the source.

How the values were obtained:
Assay type in all cases: in vivo, mouse
[1] = test system: femoral arteries from KO mice; assay: Myograph: contractility of isolated femoral artery rings from mice chronically treated with captopril
Source text: (§1) A 129S7AB2.2 genomic BAC clone (bMQ-446B20; Sanger) was used to generate the targeting vector. Recombination in SW102 cell was employed to replace the miR-143 to miR-145 genomic region by a galK cassette (45) that was amplified by the primers flanking premiR-143 to pre-miR-145 ([…] GCggcgcgcctcagcactgtcctgctcctt; […] ACggcgcgcctgttgacaattaatcatcggca). The genomic sequence was inserted via gap repair into a pKO targeting vector containing a DTA expression cassette and 450 bp homology arms for BAC recombination resulting in a vector containing 6.5 kb of sequence 5′ of miR-143 and 5.5 kb 3′ of miR-145 from genomic sequence […] to […]. The AscI restriction sites flanking the galK cassette were used to replace the galK by a floxed IRESIacZ-NeoR cassette. The vector was electroporated into MPI II ES cells (46) and recombinant clones were identified. Recombinant ES cells were injected into blastocysts and transferred to pseudopregnant mice. Chimeric animals were backcrossed to C57BL/6 mice. Heterozygous animals were used to obtain WT and KO littermates. ES cells and mice were genotyped using an EcoRV restriction digest and a 5′ outside probe amplified from genomic DNA using oligonucleotides ([…]; […]). […] The experiments were performed in accordance with German legislation on protection of animals and were approved by the local governmental animal care committee (Regierungspraesidium Darmstadt).
Isolated segments of femoral and mesenteric arteries were examined in an isometric microvessel myograph as described previously (52). Mounted vessels were stimulated with 80 mM K+, 30 nM angiotensin II or increasing concentrations of phenylephrine (100 nM to 10 μM). The pCa-force relationships (13, 14) were obtained in permeabilized mouse femoral artery segments. In brief, arteries were permeabilized for 30 minutes using 0.5% Triton X-100 in relaxation solution. The latter consisted of (in mM): EGTA 1, Pipes 30, Na2ATP 5.16, MgCl2 7.31, sodium creatine phosphate 10 and potassium gluconate 74.1. For contraction curves the buffer was supplemented with 160 U/ml calmodulin and 100 U/ml creatine phosphokinase. The concentration of free Ca2+ ions was calculated as described previously (53).

[2] = test system: miR-143/145-deficient mice; assay: Hemodynamic measurements by aortic catheterization under isoflurane, acute ACE inhibition; conditions: miR-143/145 KO animals compared with WT, isoflurane anaesthesia, captopril via jugular vein
Description: Aortic catheterization was performed using a 1.4 F pressure-volume catheter. Data were recorded and analyzed with Chart v5.4 as described before (51). Mice were anaesthetized with isoflurane (2 vol % in O2) and their body temperature was kept at 37° C. as monitored by a rectal probe. Captopril (30 mg/kg body weight, 50 μl) and angiotensin II (5 to 50000 ng/kg body weight, 50 μl) were applied via the left jugular vein. For measurements of conscious, unrestrained mice, hemodynamic parameters were recorded by telemetry (DSI, Transoma Medical, USA, TA11PA-C10 transmitters) after a recovery period from surgery of more than 7 days. Recordings were obtained every 2 minutes for 20 seconds at a sampling frequency of 1000 Hz and were analyzed for day (07:00-19:00) and nighttime (19:00-07:00) periods, respectively, to evaluate circadian variation in hemodynamics.

[3] = test system: aortae of miR-143/145 KO mice; assay: Affymetrix GeneChip mRNA expression analysis of aortae after chronic captopril or losartan
Source text: as §1
Tissues were dissected from PBS perfused animals and total RNA was isolated using the Trizol method (Invitrogen). RNA quality was checked on the Agilent 2100 Bioanalyser using the RNA 6000 Nano Kit. For mRNA expression analysis the Affymetrix GeneChip Mouse Genome 430 2.0 Array was employed with the respective one-cycle target labelling protocol. Data were analysed by the RMA algorithm using the Affymetrix Expression Console. […] 507 probe sets were identified with p<0.05 and FC>1.5 or FC<0.666. For miRNA expression analysis 384 3′ C6 aminolinker DNA-oligonucleotides complementary to published miRNA (Sanger, miRBase) sequences were synthesised and spotted with eight replicates per array to Nexterion E slides. Probe labelling and hybridization followed the Agilent miRNA labelling protocol, but P-CTTTT-Alexa555 or P-CTTTTAlexa647 oligonucleotides (MWG-Biotech) were ligated to the miRNAs. Arrays were scanned and analysed with an Axon 4200B scanner and GenePix Pro 6.0. Normalisation and data analysis was performed using Acuity 4.0. For multiple tissue comparison, miRNA from tissues was labelled with the Alexa555 dye, miRNA from whole E15.5 embryos labelled with Alexa647 dye was used as a reference. Data were linear normalized to a log ratio of 1 for the ratio of medians of let-7a-g and let-7i signals. The log 2 ratio data were centered for the single miRNA expression signals (by subtracting the row mean from each value), log 2 ratio data are visualized. For Northern blot analysis 3 μg (aorta 1.5 μg) of total RNA were separated on a 15% Polyacrylamide-Urea gel (Invitrogen) and blotted on Hybond XL (Amersham). miR-145, miR-143 and U6 antisense oligonucleotides were labeled with γ-ATP and PNK (NEB) and purified using Micro Bio-Spin® 6 columns (Biorad). Hybridization was performed in Ultrahyb hybridization buffer (Ambion) at 30° C. over night. Blots were washed 2 times in 2×SSC/0.1% SDS at 25° C. (5 min) and at 42° C. (15 min). Signals were detected using a BAS-2500 imager (Fujifilm).

[4] = test system: arteries of KO mice; assay: Morphological analysis of arteries after chronic treatment; conditions: 20 days treatment
Source text: A 129S7AB2.2 genomic BAC clone (bMQ-446B20; Sanger) was used to generate the targeting vector. Recombination in SW102 cell was employed to replace the miR-143 to miR-145 genomic region by a galK cassette (45) that was amplified by the primers flanking premiR-143 to pre-miR-145 ([…] GCggcgcgcctcagcactgtcctgctcctt; […] ACggcgcgcctgttgacaattaatcatcggca). The genomic sequence was inserted via gap repair into a pKO targeting vector containing a DTA expression cassette and 450 bp homology arms for BAC recombination resulting in a vector containing 6.5 kb of sequence 5′ of miR-143 and 5.5 kb 3′ of miR-145 from genomic sequence […] to […]. The AscI restriction sites flanking the galK cassette were used to replace the galK by a floxed IRESIacZ-NeoR cassette. […]
Arteries were perfused using a PBS solution via the heart apex at 100 mmHg pressure for 2 min, followed by perfusion with 4% paraformaldehyde in PBS. […] Ultra-thin sections were stained with uranyl acetate and lead citrate, viewed and photographically recorded using a Philips CM 10 electron microscope. The phenotype of VSMC was determined ultrastructurally following criteria as previously reported (47). […] The phenotype of VSMC in each mouse was quantified in at least 300 cells per 3 arterial segments (minimum 100 μm) using consecutive transversal sections. […]

[5] = KO femoral arteries, chronic captopril
[6] = mutant (KO) femoral arteries, captopril treatment vs. KO untreated
[7] = aorta, chronic oral treatment 20 days

In the case of C[C@H](CS)C(=O)N1CCC[C@H]1C(=O)O [captopril], the “angiotensin II-induced contraction after ACE inhibition” value [1, 5] was 9 % of K+ contraction, the “maximal force of contraction generated by K+-induced depolarization” value [1, 5] was “No change; also recorded: did not improve” and the “phenylephrine-effects after ACE inhibition” value [1, 5] was 46 % of the K+ contraction. The “Maximal angiotensin II-induced force of contraction” value ([1]; captopril-treated WT vessels, femoral artery, 20 day oral treatment) was 3.4±0.6 mN, the “Maximal angiotensin II-induced force of contraction” value ([1]; femoral arteries from miR-143/145 KO mice after captopril treatment, 20 days oral) was 0.30±0.05 mN and the “angiotensin II induced contractile responses” value [1, 6] was “significantly improved; also recorded: markedly improved”. For the same compound, the “contractile response to phenylephrine” value [1, 6] was “improved responses; also recorded: markedly improved”, the “diastolic pressure after acute inhibition of ACE” value [2] was “stronger decrease; also recorded: pronounced reduction” and the “FC Acta1 (1427735_a_at), treated miR-143/145 KO vs. WT” value [3, 7] was 0.87. For the same compound, the “FC Arhgef17 (1433682_at), treated miR-143/145 KO vs. WT” value [3, 7] was 0.82, the “FC Cald1 (1424768_at), treated miR-143/145 KO vs. WT” value [3, 7] was 1.09 and the “FC Camk2g (1423942_a_at), treated miR-143/145 KO vs. WT” value [3, 7] was 0.87. For the same compound, the “FC Cap2 (1423222_at), treated miR-143/145 KO vs. WT” value [3, 7] was 0.77, the “FC Clcn3 (1433486_at), treated miR-143/145 KO vs. WT” value [3, 7] was 1.09 and the “FC Efemp1 (1427183_at), treated miR-143/145 KO vs. WT” value [3, 7] was 1.22. For the same compound, the “FC Itga3 (1455158_at), treated miR-143/145 KO vs. WT” value [3, 7] was 0.76, the “FC Krt8 (1420647_a_at), treated miR-143/145 KO vs. WT” value [3, 7] was 1.09 and the “FC Mc2r (1422926_at), treated miR-143/145 KO vs. WT” value [3, 7] was 1.23. The “FC Mylk (1425506_at), treated miR-143/145 KO vs. WT” value [3, 7] was 0.90, the “FC Mylpf (1448371_at), treated miR-143/145 KO vs. WT” value [3, 7] was 0.77 and the “FC Myoc (1450468_at), treated miR-143/145 KO vs. WT” value [3, 7] was 0.99. For the same compound, the “FC Neo1 (1440789_at), treated miR-143/145 KO vs. WT” value [3, 7] was 1.07, the “FC Npr3 (1435184_at), treated miR-143/145 KO vs. WT” value [3, 7] was 1.00 and the “FC Pde3b (1433694_at), treated miR-143/145 KO vs. WT” value [3, 7] was 1.04. For the same compound, the “FC Ppp2r1b (1419871_at), treated miR-143/145 KO vs. WT” value [3, 7] was 0.81, the “FC Prkg1 (1449876_at), treated miR-143/145 KO vs. WT” value [3, 7] was 1.12 and the “FC Rock1 (1460729_at), treated miR-143/145 KO vs. WT” value [3, 7] was 0.99. For the same compound, the “FC S100a8 (1419394_s_at), treated miR-143/145 KO vs. WT” value [3, 7] was 0.81, the “FC S100a9 (1448756_at), treated miR-143/145 KO vs. WT” value [3, 7] was 0.78 and the “FC Serca1 (1419312_at), treated miR-143/145 KO vs. WT” value [3, 7] was 0.72. The “FC Tnnc2 (1417464_at), treated miR-143/145 KO vs. WT” value [3, 7] was 1.13, the “FC Unc5c (1449522_at), treated miR-143/145 KO vs. WT” value [3, 7] was 0.63 and the “number of the 507 deregulated probe sets returned to normal (WT) levels” value ([3]; mutant mice, 3 weeks (20 days) oral application, p > 0.05 vs. WT, n = 3) was 248. The “significant morphological changes in arteries” value [4] was “not observed”.
